According to patent publication US6906175B2, “Production of adenine nucleotide translocator (ANT), novel ANT ligands and screening assays therefor” (priority 1998, dated 2005):

Experiments:
Sf9/huANT3 mitochondria = biological target: T1, Sf9/huANT3 mitochondria (Homo sapiens, UniProt P12236); assay: [125I]atractyloside competition binding to Sf9/huANT3 mitochondria; settings: 0.5 nM [125I]atractyloside
T1 construct: expressed in transfected cells; host or cells: Spodoptera frugiperda Sf9 cells infected with recombinant baculovirus; isolated mitochondria
T1 sequence (P12236 1-298): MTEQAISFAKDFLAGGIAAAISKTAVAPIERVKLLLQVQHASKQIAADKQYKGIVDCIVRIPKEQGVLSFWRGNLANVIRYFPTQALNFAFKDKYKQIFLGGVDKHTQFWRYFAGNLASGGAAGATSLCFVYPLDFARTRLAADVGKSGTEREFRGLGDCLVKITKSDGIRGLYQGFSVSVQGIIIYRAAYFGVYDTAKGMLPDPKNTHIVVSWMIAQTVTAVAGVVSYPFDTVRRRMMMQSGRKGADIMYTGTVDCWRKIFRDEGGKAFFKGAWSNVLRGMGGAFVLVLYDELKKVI
Procedure: Sf9 cells expressing huANT3 were grown in spinner flasks. The cells were harvested by centrifugation at 2,000 g for 5 min. The cell pellet was resuspended in MSB and subjected to 3 freeze-thaw cycles. Cell membranes and debris were removed by centrifugation at 600 g for 5 min; mitochondria were collected by centrifuging the supernatant at 20,000 g for 15 min. The mitochondrial pellets were suspended in MSB, and used for binding assays as described above. Homologous competition of [^32P]ATP binding was performed using 25 μg mitochondrial protein per assay.
These findings are consistent with the presence of functional huANT3 in the mitochondrial preparations.
Atractyloside analogs (Example 6; Table 1; see also Examples 7-9) were used in pseudo-homologous competition binding assays using Sf9/huANT3 mitochondria. Mitochondria (see Example 12, 25 μg/tube) were incubated with 0.5 nM [^125I]atractyloside and varying concentrations of non-radiolabeled atractyloside or fluorescent atractyloside derivatives as described above (FIGS. 7-9).

[1] = 125I-compound 24 competition binding (Tube Assay), mitochondria from control non-infected T. ni cells; settings: control (nontransformed) T. ni mitochondria, 1 μg protein/tube; FIG. 15
Procedure: Atractyloside analogs (Example 6; Table 1; see also Examples 7-9) were also used in pseudo-homologous competition binding assays using T. ni/huANT3 mitochondria or bovine mitochondria. Mitochondria from noninfected T. ni cells, or T. ni cells infected with a baculovirus expressing huANT3 (see Example 3) were prepared as follows: […] cells were prepared by a subcontractor (PharMingen, San Diego, Calif.) as portions of about 250 mg of cells per tube. […]
The mitochondrial preparations were divided into aliquots (typically, 50μl for T. ni mitochondria or 20 μl for bovine mitochondria) and then either used directly in assays or flash frozen and stored at −80° C. The total protein content in the mitochondrial preparations was determined using the enhanced protocol (30 minutes at 60° C.; see http://www.ruf.rice.edu/˜bioslabs/methods/protein/BCA.html) of the bicinchoninic acid (BCA) assay (available in kit form from Pierce, Rockford, Ill.). […]
Unbound ^125I-compound 24 was removed by aspiration. […] The resultant pellets were aspirated and the radioactivity (dpm) in each was determined by gamma counting.

C=C1[C@@H]2CCC3[C@@](CC[C@@H]4[C@H](C(=O)O)C[C@@H](O[C@@H]5O[C@H](CO)[C@@H](OS(=O)(=O)[O-])[C@H](OS(=O)(=O)[O-])[C@H]5OC(=O)CC(C)C)C[C@@]34C)(C2)[C@@H]1O.[K+].[K+] (some centres unmarked) [ATR, atractyloside]
cpm [125I]Atractyloside bound in the presence of ATR derivative (Sf9/huANT3 mitochondria; [ATR Derivative] 1.0 nM): 224 cpm | cpm [125I]Atractyloside bound in the presence of ATR derivative (Sf9/huANT3 mitochondria; [ATR Derivative] 5.0 nM): 146 cpm | cpm [125I]Atractyloside bound in the presence of ATR derivative (Sf9/huANT3 mitochondria; [ATR Derivative] 10 nM): 42 cpm | cpm [125I]Atractyloside bound in the presence of ATR derivative (Sf9/huANT3 mitochondria; [ATR Derivative] 50 nM): 26 cpm | cpm [125I]Atractyloside bound in the presence of ATR derivative (Sf9/huANT3 mitochondria; [ATR Derivative] 1,000 nM): 36 cpm | cpm [125I]Atractyloside bound in the presence of ATR derivative (Sf9/huANT3 mitochondria; [ATR Derivative] 5,000 nM): 45 cpm | cpm [125I]Atractyloside bound in the presence of ATR derivative (Sf9/huANT3 mitochondria; [ATR Derivative] 10,000 nM): 0 cpm | competitive inhibition of 125I-compound 24 binding (in words) [1]: only slight inhibition
